# Reference: article PMC8865417, “Receptor Interaction Profiles of 4-Alkoxy-3,5-Dimethoxy-Phenethylamines (Mescaline Derivatives) and Related Amphetamines” (Frontiers in Pharmacology, 2022)
# Experiments:
# h5-HT1A receptor = molecular target: T1, h5-HT1A receptor (Homo sapiens, UniProt P08908); test: Radioligand binding at h5-HT1A receptor ([3H]8-OH-DPAT)
# T1 construct: expressed in transfected cells; host or cells: HEK 293 cells (membrane preparations)
# T1 sequence (P08908 1-422): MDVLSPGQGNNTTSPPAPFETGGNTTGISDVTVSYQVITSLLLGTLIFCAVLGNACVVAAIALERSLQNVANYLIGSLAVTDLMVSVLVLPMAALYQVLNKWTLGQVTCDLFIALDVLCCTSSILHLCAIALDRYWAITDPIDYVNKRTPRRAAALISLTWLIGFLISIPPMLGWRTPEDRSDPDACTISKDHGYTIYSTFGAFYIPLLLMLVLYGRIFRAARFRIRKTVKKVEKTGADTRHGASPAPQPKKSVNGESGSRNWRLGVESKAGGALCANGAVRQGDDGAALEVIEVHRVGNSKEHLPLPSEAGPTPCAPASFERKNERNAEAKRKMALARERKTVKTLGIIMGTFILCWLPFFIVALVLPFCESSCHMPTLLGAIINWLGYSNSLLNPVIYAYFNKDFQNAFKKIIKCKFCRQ
# h5-HT2A receptor = molecular target: T2, h5-HT2A receptor (Homo sapiens, UniProt P28223); test: Radioligand binding at h5-HT2A receptor ([3H]ketanserin); settings: for Selectivity 5-HT2A vs. 5-HT1A / Selectivity 5-HT2A vs. 5-HT2C: binding ratio; for Ki: h5-HT2A Receptor binding Ki ± SD, [3H]ketanserin, mean ± SD
# T2 construct: expressed in transfected cells; host or cells: HEK 293 cells (membrane preparations)
# T2 sequence (P28223 whole entry): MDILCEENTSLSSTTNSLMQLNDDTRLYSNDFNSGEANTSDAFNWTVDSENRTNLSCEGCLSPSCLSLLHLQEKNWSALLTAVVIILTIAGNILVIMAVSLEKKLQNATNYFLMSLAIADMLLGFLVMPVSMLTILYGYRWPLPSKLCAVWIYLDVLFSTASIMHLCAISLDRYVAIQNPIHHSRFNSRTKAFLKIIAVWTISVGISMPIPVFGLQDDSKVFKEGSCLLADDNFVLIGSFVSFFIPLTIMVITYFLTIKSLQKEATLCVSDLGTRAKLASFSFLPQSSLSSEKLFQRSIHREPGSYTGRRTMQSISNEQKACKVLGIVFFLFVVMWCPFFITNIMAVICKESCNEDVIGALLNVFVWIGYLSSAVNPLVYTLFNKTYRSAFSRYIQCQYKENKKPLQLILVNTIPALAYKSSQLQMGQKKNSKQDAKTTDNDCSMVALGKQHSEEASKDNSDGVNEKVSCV
# h5-HT2C receptor = molecular target: T3, h5-HT2C receptor (Homo sapiens, UniProt P28335); test: biochemical; assay type: binding; settings: for Ki: [3H]mesulergine, mean ± SD, read-out: h5-HT2C Receptor binding Ki ± SD
# T3 construct: expressed in transfected cells; host or cells: HEK 293 cells (membrane preparations)
# T3 sequence (P28335 33-458): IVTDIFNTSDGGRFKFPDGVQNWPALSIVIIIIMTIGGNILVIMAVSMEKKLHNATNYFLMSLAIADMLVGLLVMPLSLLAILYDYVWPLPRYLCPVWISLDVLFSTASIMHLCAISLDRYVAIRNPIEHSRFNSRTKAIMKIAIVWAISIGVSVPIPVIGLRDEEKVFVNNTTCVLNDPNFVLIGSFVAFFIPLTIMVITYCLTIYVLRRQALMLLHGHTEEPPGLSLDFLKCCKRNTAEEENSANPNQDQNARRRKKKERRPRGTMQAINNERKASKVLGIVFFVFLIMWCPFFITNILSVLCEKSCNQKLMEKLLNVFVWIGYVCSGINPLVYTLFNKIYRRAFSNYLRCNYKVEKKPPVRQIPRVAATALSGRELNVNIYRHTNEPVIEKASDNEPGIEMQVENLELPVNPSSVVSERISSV
# rat TAAR1 = molecular target: T4, rat TAAR1 (Rattus norvegicus, UniProt Q923Y9); test: Radioligand binding at rat TAAR1 ([3H]RO5166017)
# T4 construct: expressed in transfected cells; host or cells: HEK 293 cells (membrane preparations)
# T4 sequence (Q923Y9 whole entry): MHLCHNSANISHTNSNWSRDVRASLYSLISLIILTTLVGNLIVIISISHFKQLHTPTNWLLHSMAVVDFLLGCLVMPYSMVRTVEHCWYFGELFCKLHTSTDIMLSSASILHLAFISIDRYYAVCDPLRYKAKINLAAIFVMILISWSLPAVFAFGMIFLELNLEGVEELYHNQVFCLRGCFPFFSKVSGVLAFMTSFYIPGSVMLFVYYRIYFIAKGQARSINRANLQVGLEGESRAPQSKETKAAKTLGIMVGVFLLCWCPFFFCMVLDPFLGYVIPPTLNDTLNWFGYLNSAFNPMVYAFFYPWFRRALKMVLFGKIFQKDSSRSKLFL
# mouse TAAR1 = molecular target: T5, mouse TAAR1 (Mus musculus, UniProt Q923Y8); test: Radioligand binding at mouse TAAR1 ([3H]RO5166017)
# T5 construct: expressed in transfected cells; host or cells: HEK 293 cells (membrane preparations)
# T5 sequence (Q923Y8 whole entry): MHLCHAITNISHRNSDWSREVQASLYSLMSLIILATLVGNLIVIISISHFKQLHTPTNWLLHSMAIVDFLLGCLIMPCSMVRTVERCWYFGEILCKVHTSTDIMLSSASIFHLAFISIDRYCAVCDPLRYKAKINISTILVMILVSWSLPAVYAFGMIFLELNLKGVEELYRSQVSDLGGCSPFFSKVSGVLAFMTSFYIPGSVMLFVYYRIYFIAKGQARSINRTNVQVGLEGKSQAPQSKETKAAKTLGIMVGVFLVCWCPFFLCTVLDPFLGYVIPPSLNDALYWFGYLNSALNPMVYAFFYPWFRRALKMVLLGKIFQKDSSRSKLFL
# hα1A adrenergic receptor = molecular target: T6, hα1A adrenergic receptor (Homo sapiens, UniProt P35348); test: Radioligand binding at hα1A adrenergic receptor ([3H]prazosin); settings: mean ± SD
# T6 construct: expressed in transfected cells; host or cells: Chinese hamster ovary cells (membrane preparations)
# T6 sequence (P35348 1-466): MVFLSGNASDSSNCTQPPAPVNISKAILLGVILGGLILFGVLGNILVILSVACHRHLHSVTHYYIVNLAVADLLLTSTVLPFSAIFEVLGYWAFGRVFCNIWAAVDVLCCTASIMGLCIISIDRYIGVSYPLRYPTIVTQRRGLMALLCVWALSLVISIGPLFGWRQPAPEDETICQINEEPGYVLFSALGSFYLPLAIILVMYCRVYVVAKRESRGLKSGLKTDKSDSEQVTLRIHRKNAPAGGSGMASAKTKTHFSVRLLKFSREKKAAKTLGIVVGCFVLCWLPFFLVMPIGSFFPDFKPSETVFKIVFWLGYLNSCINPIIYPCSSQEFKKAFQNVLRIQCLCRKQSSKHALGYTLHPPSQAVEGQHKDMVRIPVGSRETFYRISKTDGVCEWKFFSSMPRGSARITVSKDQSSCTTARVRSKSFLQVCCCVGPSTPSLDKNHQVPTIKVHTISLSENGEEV
# hα2A adrenergic receptor = molecular target: T7, hα2A adrenergic receptor (Homo sapiens, UniProt P08913); test: Radioligand binding at hα2A adrenergic receptor ([3H]rauwolscine)
# T7 construct: expressed in transfected cells; host or cells: Chinese hamster lung cells (membrane preparations)
# T7 sequence (P08913 1-465): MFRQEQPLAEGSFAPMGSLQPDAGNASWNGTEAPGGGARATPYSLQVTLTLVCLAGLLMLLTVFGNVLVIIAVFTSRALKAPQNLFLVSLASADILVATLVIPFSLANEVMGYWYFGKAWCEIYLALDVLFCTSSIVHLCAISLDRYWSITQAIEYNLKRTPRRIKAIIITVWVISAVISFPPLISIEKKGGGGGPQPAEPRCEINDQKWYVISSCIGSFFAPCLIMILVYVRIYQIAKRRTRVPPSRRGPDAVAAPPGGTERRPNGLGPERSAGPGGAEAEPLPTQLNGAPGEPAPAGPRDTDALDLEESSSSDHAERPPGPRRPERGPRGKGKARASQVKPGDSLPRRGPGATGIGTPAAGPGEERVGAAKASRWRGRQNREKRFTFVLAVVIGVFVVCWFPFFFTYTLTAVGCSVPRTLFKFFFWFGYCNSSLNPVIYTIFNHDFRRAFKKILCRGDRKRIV
# [1] = molecular target: T8, dopaminergic hD2 receptor (Homo sapiens, UniProt P14416); test: Radioligand binding at dopaminergic hD2 receptor ([3H]spiperone)
# T8 construct: expressed in transfected cells; host or cells: HEK 293 cells (membrane preparations)
# T8 sequence (P14416 whole entry): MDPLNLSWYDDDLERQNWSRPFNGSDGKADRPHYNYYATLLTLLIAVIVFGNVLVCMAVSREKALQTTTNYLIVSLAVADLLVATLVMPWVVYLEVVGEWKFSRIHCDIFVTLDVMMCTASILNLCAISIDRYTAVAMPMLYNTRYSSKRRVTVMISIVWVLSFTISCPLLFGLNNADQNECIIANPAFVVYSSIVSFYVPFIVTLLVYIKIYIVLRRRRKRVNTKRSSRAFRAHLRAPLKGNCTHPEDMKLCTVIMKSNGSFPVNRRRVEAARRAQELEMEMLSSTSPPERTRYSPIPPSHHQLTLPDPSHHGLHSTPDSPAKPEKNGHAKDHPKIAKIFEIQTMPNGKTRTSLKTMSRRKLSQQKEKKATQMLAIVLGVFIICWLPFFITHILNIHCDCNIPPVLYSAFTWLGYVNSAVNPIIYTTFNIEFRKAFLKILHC
# hNET = molecular target: T9, hNET (Homo sapiens, UniProt P23975); test: Radioligand binding at hNET (N-methyl-[3H]nisoxetine)
# T9 construct: expressed in transfected cells; host or cells: HEK 293 cells (membrane preparations)
# T9 sequence (P23975 whole entry): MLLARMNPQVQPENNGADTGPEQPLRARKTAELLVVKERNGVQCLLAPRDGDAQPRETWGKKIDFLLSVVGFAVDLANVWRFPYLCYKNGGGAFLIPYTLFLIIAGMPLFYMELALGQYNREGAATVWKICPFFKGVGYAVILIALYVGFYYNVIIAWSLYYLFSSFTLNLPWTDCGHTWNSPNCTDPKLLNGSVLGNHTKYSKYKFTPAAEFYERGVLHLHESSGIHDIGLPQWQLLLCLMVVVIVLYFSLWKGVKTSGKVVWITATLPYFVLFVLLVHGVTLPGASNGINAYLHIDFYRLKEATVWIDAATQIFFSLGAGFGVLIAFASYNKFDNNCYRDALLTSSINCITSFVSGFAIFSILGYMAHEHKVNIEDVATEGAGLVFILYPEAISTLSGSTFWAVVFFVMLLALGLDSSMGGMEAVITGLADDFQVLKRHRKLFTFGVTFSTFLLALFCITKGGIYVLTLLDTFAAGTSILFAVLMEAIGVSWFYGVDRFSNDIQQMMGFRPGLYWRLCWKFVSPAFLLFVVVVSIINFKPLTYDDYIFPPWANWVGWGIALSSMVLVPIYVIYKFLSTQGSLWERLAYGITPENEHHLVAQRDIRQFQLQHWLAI
# hDAT = molecular target: T10, hDAT (Homo sapiens, UniProt Q01959); test: Radioligand binding at hDAT ([3H]WIN35,428)
# T10 construct: expressed in transfected cells; host or cells: HEK 293 cells (membrane preparations)
# T10 sequence (Q01959 whole entry): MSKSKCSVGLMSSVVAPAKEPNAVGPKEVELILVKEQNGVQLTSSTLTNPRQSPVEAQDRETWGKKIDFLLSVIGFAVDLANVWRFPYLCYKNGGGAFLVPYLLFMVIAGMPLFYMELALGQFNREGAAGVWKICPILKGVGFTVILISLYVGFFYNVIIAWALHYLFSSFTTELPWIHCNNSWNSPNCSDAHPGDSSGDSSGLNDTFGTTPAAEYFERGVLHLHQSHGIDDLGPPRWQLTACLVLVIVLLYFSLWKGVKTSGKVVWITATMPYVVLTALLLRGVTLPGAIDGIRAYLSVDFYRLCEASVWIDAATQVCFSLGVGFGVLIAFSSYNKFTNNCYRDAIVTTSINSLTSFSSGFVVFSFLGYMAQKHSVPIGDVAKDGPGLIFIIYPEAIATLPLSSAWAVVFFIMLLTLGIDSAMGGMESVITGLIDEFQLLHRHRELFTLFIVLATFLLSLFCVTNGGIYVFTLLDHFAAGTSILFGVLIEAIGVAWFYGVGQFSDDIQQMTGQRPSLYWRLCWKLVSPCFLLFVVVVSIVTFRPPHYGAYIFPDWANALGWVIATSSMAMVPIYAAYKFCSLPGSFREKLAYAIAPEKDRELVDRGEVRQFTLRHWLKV
# hSERT = molecular target: T11, hSERT (Homo sapiens, UniProt P31645); test: Radioligand binding at hSERT ([3H]citalopram)
# T11 construct: expressed in transfected cells; host or cells: HEK 293 cells (membrane preparations)
# T11 sequence (P31645 whole entry): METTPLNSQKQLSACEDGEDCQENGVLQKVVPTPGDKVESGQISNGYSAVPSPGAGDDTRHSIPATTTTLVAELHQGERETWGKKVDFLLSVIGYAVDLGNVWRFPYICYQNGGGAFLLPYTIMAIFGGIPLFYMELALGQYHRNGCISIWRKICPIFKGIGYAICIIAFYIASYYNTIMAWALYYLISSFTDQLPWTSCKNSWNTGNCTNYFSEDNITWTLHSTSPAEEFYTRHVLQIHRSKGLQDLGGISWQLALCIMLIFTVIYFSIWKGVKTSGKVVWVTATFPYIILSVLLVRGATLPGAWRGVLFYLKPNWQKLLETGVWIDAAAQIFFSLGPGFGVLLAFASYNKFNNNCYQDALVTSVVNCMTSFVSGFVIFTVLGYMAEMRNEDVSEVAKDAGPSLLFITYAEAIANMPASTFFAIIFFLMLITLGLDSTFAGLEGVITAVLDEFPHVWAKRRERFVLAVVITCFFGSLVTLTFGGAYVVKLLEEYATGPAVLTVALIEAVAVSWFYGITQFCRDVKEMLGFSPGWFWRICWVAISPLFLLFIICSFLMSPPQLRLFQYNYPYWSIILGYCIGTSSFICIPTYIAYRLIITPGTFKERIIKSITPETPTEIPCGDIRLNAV
# human 5-HT2A receptor = human 5-HT2A receptor (Homo sapiens, UniProt P28223); settings: for Emax: NIH3T3, read-out: h5-HT2A Activation efficacy max ± SD, relative to 5-HT = 100%
# Chain of human 5-HT2A receptor (P28223 whole entry): as the sequence (P28223 whole entry) above
# human 5-HT2B receptor = human 5-HT2B receptor (Homo sapiens, UniProt P41595); settings: for Emax: HEK293, read-out: h5-HT2B Activation efficacy max ± SD, relative to 5-HT = 100%; for EC50: h5-HT2B Activation potency EC50 ± SD, HEK 293 cells, calcium FLIPR, mean ± SD
# Chain of human 5-HT2B receptor (P41595 whole entry): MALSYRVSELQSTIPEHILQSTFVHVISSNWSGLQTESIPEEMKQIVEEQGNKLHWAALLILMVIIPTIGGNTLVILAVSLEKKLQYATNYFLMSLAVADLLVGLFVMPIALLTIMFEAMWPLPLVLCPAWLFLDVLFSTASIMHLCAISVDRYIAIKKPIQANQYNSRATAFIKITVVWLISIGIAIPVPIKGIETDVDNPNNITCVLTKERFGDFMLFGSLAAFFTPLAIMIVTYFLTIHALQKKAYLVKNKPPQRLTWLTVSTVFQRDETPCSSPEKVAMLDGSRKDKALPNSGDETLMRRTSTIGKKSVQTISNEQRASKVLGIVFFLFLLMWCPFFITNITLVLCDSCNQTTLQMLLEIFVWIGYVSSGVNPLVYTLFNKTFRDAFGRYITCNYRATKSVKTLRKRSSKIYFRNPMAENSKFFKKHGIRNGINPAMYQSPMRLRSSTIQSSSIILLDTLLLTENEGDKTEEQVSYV
SMILES,Ki (h5-HT1A receptor) [µM],Selectivity 5-HT2A vs. 5-HT1A (h5-HT2A receptor),Selectivity 5-HT2A vs. 5-HT2C (h5-HT2A receptor),Ki (h5-HT2A receptor) [µM],Higher affinity at the 5-HT2A receptor compared to mescaline (5) (h5-HT2A receptor; ratio of Ki values),Higher affinity at the 5-HT2C receptor than mescaline (5) (h5-HT2C receptor),Ki (h5-HT2C receptor) [µM],Ki (rat TAAR1) [µM],Ki (mouse TAAR1) [µM],Ki (hα1A adrenergic receptor) [µM],Ki (hα2A adrenergic receptor) [µM],Ki [1] [µM],Ki (hNET) [µM],Ki (hDAT) [µM],Ki (hSERT) [µM],EC50 (human 5-HT2A receptor) [µM],Emax (human 5-HT2B receptor) [%],EC50 (human 5-HT2B receptor) [µM],Emax (human 5-HT2A receptor) [%],Increase in 5-HT2A receptor affinity compared with TMA (6) (h5-HT2A receptor; ratio of Ki values) [fold]
"COc1cc(CCN)cc(OC)c1OC(F)(F)F [compound 13, 4-trifluoromethoxy-3,5-dimethoxyphenethylamine]",2.2,7.9,1.0,0.28 ± 0.1,17- to 63 fold,19- to 34 fold,0.29 ± 0.1,0.17 ± 0.01,1.9,3.2,0.45 ± 0.06,> 6.3,> 9.7,> 8.5,> 7.5,0.28 ± 0.12,45 ± 6,0.088 ± 0.02,–,–
"COc1cc(CC(C)N)cc(OC)c1OC(F)F (stereo not drawn) [compound 14, 4-difluoromethoxy-3,5-dimethoxyamphetamine]",> 5.6,–,2.6,1.4,–,–,3.7,0.38 ± 0.02,1,> 8.7,2.6,> 6.3,> 9.7,> 8.5,> 7.5,0.076 ± 0.04,18 to 29,0.15 ± 0.1,–,–
"COc1cc(CCN)cc(OC)c1OCC(F)(F)F [compound 18, 3,5-dimethoxy-4-(2,2,2-trifluoroethoxy)phenethylamine]",> 5.6,–,0.9,1.3,–,–,1.2,1.2,> 4.2,> 8.7,2.3,> 6.3,> 9.7,> 8.5,> 7.5,0.96 ± 0.05,29 ± 14,0.21 ± 0.13,44 to 78,–
"COc1cc(CCN)cc(OC)c1OC(CF)CF [compound 23, 3,5-dimethoxy-4-(1,3-difluoroprop-2-yloxy)phenethylamine]",> 5.6,–,–,> 12,–,–,> 10,> 4.7,> 4.2,> 8.7,2.7,> 6.3,> 9.7,> 8.5,> 7.5,–,–,> 10,–,–
"COc1cc(CCN)cc(OC)c1OCCCF [compound 25, 3,5-dimethoxy-4-(3-fluoropropoxy)-phenethylamine]",> 5.6,<1,0.6,9.3,–,–,5.3,1.7,> 4.2,> 8.7,2.9,> 6.3,> 9.7,> 8.5,> 7.5,4.5,–,> 10,85 to 94,–
"COc1cc(CCN)cc(OC)c1OCCC(F)(F)F [compound 26, 3,5-dimethoxy-4-(3,3,3-trifluoropropoxy)phenethylamine]",> 5.6,>1,1.1,5,–,–,5.3,0.91 ± 0.09,> 4.2,> 8.7,2.3,> 6.3,> 9.7,> 8.5,> 7.5,4.9,–,> 10,–,–
"CCCOc1c(OC)cc(CC(C)N)cc1OC (stereo not drawn) [compound 28, 3,5-dimethoxy-4-propyloxyamphetamine]",> 5.6,–,2.0,1,–,–,2,3.4,1.8,> 8.7,4.6,> 6.3,> 9.7,> 8.5,> 7.5,0.16 ± 0.02,–,> 10,86 to 102,≥ 10
"COc1cc(CCN)cc(OC)c1OC1CC1 [compound 29, 4-cyclopropyloxy-3,5-dimethoxyphenethylamine]",4,0.9,1.3,4.3,–,–,5.6,1.2,> 4.2,> 8.7,1.2,> 6.3,> 9.7,> 8.5,> 7.5,2.6,–,> 10,85 to 94,–
"C=C(C)COc1c(OC)cc(CCN)cc1OC [compound 32, 3,5-dimethoxy-4-methallyloxyphenethylamine]",5.1,9.3,0.9,0.55 ± 0.19,17- to 63 fold,19- to 34 fold,0.52 ± 0.15,1,3.9,> 8.7,1.5,> 6.3,> 9.7,> 8.5,> 7.5,0.079 ± 0.012,–,> 10,85 to 94,–
"COc1cc(CCN)cc(OC)c1OCc1ccccc1 [compound 33, 4-benzyloxy-3,5-dimethoxyphenethylamine]",4.4,29,2.9,0.15 ± 0.01,17- to 63 fold,19- to 34 fold,0.44 ± 0.12,0.11 ± 0.01,2.4,> 8.7,2.3,> 6.3,> 9.7,> 8.5,> 7.5,0.027 ± 0.008,–,> 10,–,–
